Consider one compound from patent US8569324B2, “Potentiator for radiation therapy comprising pyridine derivative as active ingredient” (Taiho Pharmaceutical Co., Ltd., priority 2005, dated 2013).

Data set [1] deals with human lung cancer strain (LC-11). Kind of data set: Test Example 1: radiotherapy enhancing effect of CDHP on human lung cancer strain LC-11 transplanted into nude mice. Format: in vivo, BALB/cA-nu mouse. The protocol:
(a) Preparation of test solution: 5-Chloro-2,4-dihydroxypyridine (CDHP) was suspended in a 0.5% (W/V) hydroxypropylmethylcellulose (HPMC) solution at concentrations of 0.25 and 2.5 mg/mL, and the suspension was stirred with a stirrer at room temperature for about 10 minutes and ultrasonicated for about 5 minutes with ice cooling to obtain a drug solution of 2.5 or 25 mg/kg/day as CDHP. (b) Method for Radiation (X-ray) irradiation: Local irradiation was performed on a human tumor strain transplanted into the right femoral region of the mouse using MBR-1505R Type 2 X-ray Irradiation System of Hitachi Medical Corporation under an irradiation condition (irradiation position) so that exposure per mouse should be 2 Gy or 5 Gy. To prevent systemic irradiation, mice were placed in a storage box made of lead so that only their right leg should be exposed to radiation. (c) Test: The human lung cancer strain (LC-11) subcutaneously transplanted into the back of a BALB/cA-nu mouse and grown beforehand were removed, cut into small fragments of about 2×2 mm^2 with scissors in physiological saline, and subcutaneously transplanted into the right femoral region of 5 to 6-week-old mice of the same strain with a transplantation needle. The mice were bred for at least 1 to 2 weeks and divided into the control group, the radiation alone group, the drug alone group, and the drug plus radiation group, so that the tumor volume and standard deviation (S.D.) in each group (n=6 per group) should be as uniform as possible. Then, drug administration and X-ray irradiation were initiated. The drug treatment group was orally administered with 0.1 mL each of the above-described CDHP drug solution per body weight 10 g once daily for 14 consecutive days using a sonde for oral administration. The radiation group was irradiated with 2 Gy or 5 Gy of X-ray within about 1 hour after administration of the CDHP drug solution in the above-described manner on day 1, at the start of the test, and on day 8. Tumor-bearing mice in the control group (non-radiation/non-drug treatment group) and the radiation alone group were orally administered with 0.5% HPMC solution alone in the same manner for 14 consecutive days.
By using the following numerical formula 1, the tumor volume of each mouse in each group was obtained prior to the start of treatment experiment, on days 3, 5, 8 (1 week later) and 11 during the treatment period, and days 15 (2 weeks later), 18, 22 (3 weeks later), 25, and 29 (4 weeks later) after completion of the treatment. A relative tumor volume (RTV) to the tumor volume at the start of the test was obtained for each mouse. […] The mean tumor growth inhibition rate (IR; %) in each treatment group based on the control group was obtained by using the following numerical formula 2 on days 15, at the end of the treatment period, and 29 at 4 weeks later and shown in Table 1.

Another data set has as its system normal skin. Kind of data set: Test Example 3: effect of irradiation on disorders of normal tissues (normal skin), severity by method of Douglas et al. Format: in vivo, BALB/cA-nu mice. As to conditions: CDHP 50 mg/kg/day oral 7 days + 20 Gy X-ray on days 1 and 3; 6 animals; radiation alone: grades 1.5 or higher in all 6 after day 14. The protocol: (a) Preparation of test solution: CDHP was suspended in a 0.5% (W/V) HPMC solution at a concentration of 5.0 mg/mL, and the suspension was stirred with a stirrer at room temperature for about 10 minutes and ultrasonicated with ice cooling for about 5 minutes to obtain a drug solution of 50 mg/kg/day as CDHP. (b) Method for X-ray irradiation: Local irradiation was performed on the right femoral region of the mouse using MBR-1505R Type 2 X-ray Irradiation System of Hitachi Medical Corporation under an irradiation condition (irradiation position) so that exposure per mouse should be 20 Gy. To prevent systemic irradiation, mice were placed in a storage box made of lead so that only their right leg should be exposed to radiation. (c) Test: Six to 8-week-old BALB/cA-nu mice were divided into the control group, the radiation alone group, and the drug plus radiation group, each consisting of 6 animals, and drug administration and X-ray irradiation were initiated. […] (d) Determination of severity of skin disorders: From 7 days after the end of the test, severity of skin disorders in the femoral region caused by irradiation was determined by the method of Douglas, et al. (Douglas B G, et al.: The effect of multiple small doses of X-rays on skin reactions in the mice and a basic interpretation. Radiation Res., 66: 401-426, 1976.).

Values joined by “and” are separate entries in the source; they are usually repeats but may differ in a detail not shown here. Identical values can stand only once.

With `Oc1cc(O)c(Cl)cn1` [CDHP, 5-chloro-2,4-dihydroxypyridine], the “Tumor growth inhibition rate IR(%) Day 15” value in data set [1] (CDHP 2.5 mg/kg oral once daily 14 days + X-ray 2 Gy on days 1 and 8, Day 15) was 41%; in data set [1] (CDHP 2.5 mg/kg oral once daily 14 days, X-ray 0 Gy, Day 15) it was 17.2%; in data set [1] (CDHP 25 mg/kg oral once daily 14 days + X-ray 2 Gy on days 1 and 8, Day 15) it was 57% and 57.2%; in data set [1] (CDHP 25 mg/kg oral once daily 14 days, X-ray 0 Gy, Day 15) it was 9.7%. Also, the “Tumor growth inhibition rate IR(%) Day 29” value in data set [1] (CDHP 2.5 mg/kg oral once daily 14 days + X-ray 2 Gy on days 1 and 8, Day 29) was 25% and 24.7* %; in data set [1] (CDHP 2.5 mg/kg oral once daily 14 days, X-ray 0 Gy, Day 29), −7.9%; in data set [1] (CDHP 25 mg/kg oral once daily 14 days + X-ray 2 Gy on days 1 and 8, Day 29), 46% and 46.3** %; in data set [1] (CDHP 25 mg/kg oral once daily 14 days, X-ray 0 Gy, Day 29), −15.3%. Also, the “enhancement of the effect of X-ray” value in data set [1] (CDHP 2.5 and 25 mg/kg with 2-Gy X-ray irradiation in combination) is “significantly enhanced the effect of X-ray”. The “antitumor effect of drug alone” value in data set [1] (CDHP alone, both doses 2.5 and 25 mg/kg) is given as “hardly showed any antitumor effect”. In addition, in data set [1] (mice receiving CDHP and X-ray in combination), the “serious adverse drug reactions (body weight loss, skin disorders)” value was “no serious adverse drug reactions such as body weight loss and skin disorders were observed”. In the data set on normal skin, the “severity of skin disorders in the femoral region caused by irradiation” value is “mild disorders (redness, swelling) were observed only in 1 or 2 mice”.
